US7510825B2, “Kits and methods for detection of apoptotic cells” (NST NeuroSurvival Technologies Ltd, priority 2000, dated 2009)

How the values were obtained:
[1] = tested on: L5178-S (LY-S) murine lymphoma tumors; experiment: Detection by DDC of tumor cell apoptosis in lymphoma-bearing mice after Taxol; format: in vivo; conditions: Taxol 20 mg/kg treated vs control animals; DDC i.v. 24 h after Taxol, sacrifice 2 h later
Procedure: (§1) A. Administration of DDC in-vivo: Injection of 200 μl of DDC intravenously. Following 1-2 hours, animal is sacrificed, and the desired organ is placed in a test tube or on a small plate, suitable for liquid nitrogen freezing. The plate is then covered with an aluminum foil, and transferred to liquid nitrogen. Following 5-30 minutes the specimen is being frozen to −80° C. and kept at −80° C. for at least 16 hr. B. Analysis of the Specimen: • a. Whole organ imaging Ex-vivo whole organ fluorescence imaging may be carried out on freshly excised specimen, that can be analyzed under a stereomicroscope (such as Leica MZ FL III, Leica Switzerland). DDC may be visualized using 360cx and >420cm nm filter set. Emitted fluorescence can be imaged using appropriate camera and software, such as a Leica DC 300F Distal camera and images can be processed and analyzed by Leica QWin Lite software. • b. Histological analysis, from the frozen organ or tissue, 4 μm cryosections are prepared on slides. Analysis of the tissue sections can be performed using a fluorescence microscope with a UV filter characterized by excitation at 360-370 nm (band pass) and emission at 420 nm (barrier filter) In case that staining of the examined tissue is desired, the following procedures can be applied: […]

[2] = tested on: C26 colon carcinoma tumors; experiment: DDC binding versus TUNEL and H&E in colon carcinoma after Doxorubicin; format: in vivo, mice; conditions: 48 h after Doxorubicin 20 mg/kg; consecutive slides
Procedure: as §1

`CN(C)c1cccc2c(S(=O)(=O)NC(CSSCC(NS(=O)(=O)c3cccc4c(N(C)C)cccc34)C(=O)O)C(=O)O)cccc12` (centres unmarked) [DDC] was tested, and the “DDC uptake into tumors” value [1] was “marked increase of DDC uptake” and the “correlation of DDC staining with H&E and TUNEL staining” value [2] was “highly correlated with both H&E (C) and TUNEL (B) staining”.
